Assay [1] addresses T1, 11-beta-hydroxysteroid dehydrogenase 1 (Homo sapiens, UniProt P28845). In words: Inhibition of human microsomal 11beta-HSD1 overexpressed in HEK293 cells using [3H]-cortisone as substrate assessed as formation of [3H]-cortisol at 10 uM by scintillation proximity assay in presence of NADPH relative to control. Background: In a scintillation proximity assay essentially only radioactivity close to the scintillant gives light.
Target sequence in this assay (P28845 whole entry, looked up): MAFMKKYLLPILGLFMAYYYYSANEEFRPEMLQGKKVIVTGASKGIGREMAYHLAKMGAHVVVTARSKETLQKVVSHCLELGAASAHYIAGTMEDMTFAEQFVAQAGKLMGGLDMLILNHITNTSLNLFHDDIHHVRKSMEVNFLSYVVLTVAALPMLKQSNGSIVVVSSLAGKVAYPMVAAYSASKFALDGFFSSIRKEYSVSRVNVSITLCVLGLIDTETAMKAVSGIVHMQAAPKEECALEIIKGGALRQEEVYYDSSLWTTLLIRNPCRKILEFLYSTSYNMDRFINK

In assay [2] the target is T1, 11-beta-hydroxysteroid dehydrogenase 1. Description: Inhibition of human microsomal 11beta-HSD1 overexpressed in HEK293 cells using [3H]-cortisone as substrate assessed as formation of [3H]-cortisol by scintillation proximity assay in presence of NADPH.
Target sequence in this assay (P28845 whole entry): as the sequence (P28845 whole entry, looked up) above
Assay [3] addresses 11-beta-hydroxysteroid dehydrogenase 1 (Mus musculus, UniProt P50172). In words: Inhibition of mouse microsomal 11beta-HSD1 overexpressed in HEK293 cells using [3H]-cortisone as substrate assessed as formation of [3H]-cortisol by scintillation proximity assay in presence of NADPH.
The target of assay [4] is 11-beta-hydroxysteroid dehydrogenase 1 (Mus musculus) (UniProt P50172). Description: Inhibition of mouse microsomal 11beta-HSD1 overexpressed in HEK293 cells using [3H]-cortisone as substrate assessed as formation of [3H]-cortisol at 10 uM by scintillation proximity assay in presence of NADPH relative to control.
11-beta-hydroxysteroid dehydrogenase 1 (Mus musculus), sequence (P50172 whole entry, looked up): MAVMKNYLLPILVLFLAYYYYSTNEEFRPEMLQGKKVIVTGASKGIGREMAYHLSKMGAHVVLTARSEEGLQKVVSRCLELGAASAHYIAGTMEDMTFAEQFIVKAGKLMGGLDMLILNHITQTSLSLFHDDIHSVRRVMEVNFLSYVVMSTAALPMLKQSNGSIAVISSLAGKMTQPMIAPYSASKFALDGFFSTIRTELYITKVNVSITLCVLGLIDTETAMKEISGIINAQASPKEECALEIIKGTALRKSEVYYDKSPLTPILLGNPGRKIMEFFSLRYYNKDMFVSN

11-beta-hydroxysteroid dehydrogenase 1 (Mus musculus, UniProt P50172), sequence (P50172 whole entry): as the sequence (P50172 whole entry, looked up) above

For `CCC(C)C(=O)O[C@@H]1C[C@H]2C(C)(C)C(=O)C=C[C@]2(C)[C@H]2[C@@H](OC(C)=O)C[C@]3(C)C(=CC(=O)[C@H]3c3ccoc3)[C@@]21C` (relative stereo), the inhibition in assay [1] is over 50%. The half-maximal inhibitory concentration (IC50) in assay [2] is 11.4 µM.
With `CC(C)(O)[C@@H](O)[C@H]1C[C@@H]([C@@H]2CC[C@]3(C)C4=CC[C@H]5C(C)(C)[C@@H](O)CC[C@]5(C)[C@H]4CC[C@@]23C)C(=O)O1`, the inhibition in assay [1] and in assay [4] was over 60% each time. Moreover, the concentration for half-maximal inhibition (IC50) in assay [3] was determined as 0.82 µM; in assay [2], 3.2 µM.
For `CC(C)=CC(=O)[C@@H](O)[C@H](C)[C@@H]1CC[C@]2(C)C3=CC[C@H]4C(C)(C)[C@@H](O)CC[C@]4(C)[C@H]3C[C@@H](O)[C@@]12C`, the inhibition in assay [1] and in assay [4] was over 60% in each case. Moreover, the concentration for half-maximal inhibition (IC50) in assay [3] is 1.15 µM; in assay [2], 3.74 µM.
Regarding `CC(C)=CC(=O)[C@@H](O)[C@H](C)[C@@H]1CC[C@]2(C)C3=CC[C@H]4C(C)(C)[C@H](O)CC[C@]4(C)[C@H]3C[C@@H](O)[C@@]12C`, the inhibition in assay [1] and in assay [4] was 45% throughout.

One may read the inhibition as the share of the control response that was lost under treatment. Broadly, the IC50 is the concentration at which inhibition is half-maximal.
